The values that follow come from patent US7414134B2, “B1 bradykinin receptor antagonists” (Amgen Inc., priority 2004, dated 2008).

The target of one data set is T1, hB1 receptor (Homo sapiens, UniProt P46663).
T1 construct: expressed in transfected cells; host or cells: CHO D- cells stably expressing hB1 and aequorin
T1 sequence (P46663 1-353): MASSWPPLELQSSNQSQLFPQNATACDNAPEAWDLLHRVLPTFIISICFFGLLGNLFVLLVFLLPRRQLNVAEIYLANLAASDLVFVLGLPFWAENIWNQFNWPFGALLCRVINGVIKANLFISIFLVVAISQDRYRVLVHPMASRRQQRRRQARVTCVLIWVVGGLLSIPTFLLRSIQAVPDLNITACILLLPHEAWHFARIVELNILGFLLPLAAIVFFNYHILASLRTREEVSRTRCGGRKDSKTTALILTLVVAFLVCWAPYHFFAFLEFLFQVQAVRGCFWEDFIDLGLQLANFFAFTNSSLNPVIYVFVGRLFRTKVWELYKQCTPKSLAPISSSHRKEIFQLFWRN
Briefly: In vitro assay of human B1 receptor function using calcium flux (aequorin). It counts as cell-based. As to conditions: CHO D-/hB1/Aequorin cells, agonist 20 nM des-Arg10-Kallidin (EC80); read-out: binding IC50's to hB1 receptor function. The text has this:
Activation of the Gq linked B1 receptor results in an increase in intracellular calcium. The calcium sensitive photoprotein aequorin can, therefore, be used as an indicator of B1 receptor activation. Aequorin is a 21-kDa photoprotein that forms a bioluminescent complex when linked to the chromophore cofactor coelenterazine. Following the binding of calcium to this complex, an oxidation reaction of coelenterazine results in the production of apoaequorin, coelenteramide, CO2, and light that can be detected by conventional luminometry.
A stable CHO D-/hB1/Aequorin cell line was established and the cells were maintained in suspension in spinner bottles containing a 1:1 ratio of DMEM and HAM F12 (Gibco 11765-047), high glucose (Gibco 11965-084), 10% Heat Inactivated Dialyzed serum (Gibco 26300-061), 1× Non-Essential Amino Acids (Gibco 11140-050), 1× Glutamine-Pen-Strep (Gibco 10378-016), and Hygromycin, 300 μg/mL (Roche 843555). […]
Media was removed from the wells and replaced with 60 μL of serum free HAM's F12 with 30 mM HEPES (pH 7.5) and 15 μM coelenterazine (Coelenterazine h Luciferin #90608 from Assay Designs). […] The hB1 agonist, des-Arg10-Kallidin, was added to the cell plate and another 12 images were recorded to determine the IC50 of the antagonist(s).

For data set [1] the following is noted: cited from earlier work.

Ends that are not written are not given here.

For the compound `Cc1ccc(S(=O)(=O)N[C@H](Cc2cn([C@@H]3CCOc4cc(CN5CCC(F)CC5)ccc43)nn2)C(N)=O)cc1` [Example 7, (R)-3-(1-((R)-7-((4-fluoropiperidin-1-yl)methyl)-3,4-dihydro-2H-chromen-4-yl)-1H-1,2,3-triazol-4-yl)-2-(4-methylphenylsulfonamido)propanamide], the IC50 on hB1 receptor was < 1000 nM. Take RPPGFSPFR [BK, Bradykinin]: the “half-life of BK in plasma” value in data set [1] is given as “approximately 17 seconds”.

The term IC50 denotes the concentration that gives 50% inhibition.
